In paper PMC5769417, “Single- and Multiple-Dose Trials to Determine the Pharmacokinetics, Safety, Tolerability, and Sex Effect of Oral Ginsenoside Compound K in Healthy Chinese Volunteers” (Frontiers in Pharmacology, 2018):

System: healthy Chinese volunteers
Assay: Multiple-dose trial, safety and tolerability (adverse events)
Assay type: in vivo, human
Protocol: Multiple-dose pharmacokinetics: The multiple-dose trial could be carried out on the condition that a single-dose of CK (25–800 mg) was safe and well tolerated in healthy Chinese volunteers. After breakfast, one of three doses (100, 200, or 400 mg) of CK or placebo were given to 36 eligible subjects randomized to each dose (male:female = 1:1), in which 10 were on active treatment and 2 were on matching placebo. CK were administered as a single dose on day 1 and then as repeated doses for 9 consecutive days (days 7–15 of the trial), and the drug was administered once-daily in the morning after meals.
Safety was evaluated by continuous observation of adverse events (AEs), monitoring of vital signs, ECG, hematology, biochemistry, and urinalysis at baseline, during the trials at the set time points following drug administration, and at follow-up visits after study completion. AEs were classified by their intensity into mild, moderate and severe. Additionally, the AEs were also classified according their relationship to the test drug as positive, probable, possible, remote, or unrelated. The severity of the AEs, as well as their relationship to test drug, was assessed by a qualified physician in the unit. Clinically relevant changes in vital signs, ECG and laboratory parameters were defined as marked abnormalities. ECG were recorded in the semisupine position after a rest of at least 5 min. It is worth noting that all the information, including symptoms and signs after dosing or the medications that the subjects were concomitantly taking must be recorded on the case-report form by investigators. All available data from subjects who received the test drug and placebo were included in the summaries of the safety data and were descriptively analyzed. In addition, the differences between laboratory parameters at baseline and after drug treatment were analyzed to determine whether there were clinical significances.
All the safety data, including vital signs, laboratory indexes and ECG, were descriptively analyzed, and the statistical analyses were conducted to evaluate the effects of the test drug by comparing the differences between before and after drug treatment, between the test drug group and the placebo group and among the different dose groups.

## CC(C)=CCC[C@](C)(OC1O[C@H](CO)[C@@H](O)[C@H](O)[C@H]1O)[C@H]1CC[C@]2(C)[C@@H]1[C@H](O)C[C@@H]1[C@@]3(C)CC[C@H](O)C(C)(C)[C@@H]3CC[C@]12C (stereo partly drawn) [CK, 20-O-beta-D-glucopyranosyl-20(S)-protopanaxadiol]
  AEs positively relevant to CK: 20 cases
  AEs possibly related to CK: 14 cases
  AEs probably related to CK: 23 cases
100 mg (n = 10)
  Alkaline phosphatase increased (study drug-related AE): 0 number of subjects (%)
  Any AEs (study drug-related): 7 (19.4) number of subjects (%)
  Bellyache (study drug-related AE): 0 number of subjects (%)
  Blood white cells increased (study drug-related AE): 0 number of subjects (%)
  Diarrhea (study drug-related AE): 3 (8.3) number of subjects (%)
  Direct bilirubin increased (study drug-related AE): 2 (5.6) number of subjects (%)
  Dizziness (study drug-related AE): 4 (11.1) number of subjects (%)
  Headache (study drug-related AE): 0 number of subjects (%)
  Loss of appetite (study drug-related AE): 2 (5.6) number of subjects (%)
  Nausea (study drug-related AE): 1 (2.8) number of subjects (%)
  Rash (study drug-related AE): 0 number of subjects (%)
  Subcutaneous bleeding (double forearm) (study drug-related AE): 0 number of subjects (%)
  Total bilirubin increased (study drug-related AE): 0 number of subjects (%)
200 mg (n = 10)
  Alkaline phosphatase increased (study drug-related AE): 1 (2.8) number of subjects (%)
  Any AEs (study drug-related): 10 (27.8) number of subjects (%)
  Bellyache (study drug-related AE): 4 (11.1) number of subjects (%)
  Blood white cells increased (study drug-related AE): 0 number of subjects (%)
  Diarrhea (study drug-related AE): 9 (25) number of subjects (%)
  Direct bilirubin increased (study drug-related AE): 1 (2.8) number of subjects (%)
  Dizziness (study drug-related AE): 1 (2.8) number of subjects (%)
  Headache (study drug-related AE): 0 number of subjects (%)
  Loss of appetite (study drug-related AE): 0 number of subjects (%)
  Nausea (study drug-related AE): 0 number of subjects (%)
  Rash (study drug-related AE): 0 number of subjects (%)
  Subcutaneous bleeding (double forearm) (study drug-related AE): 0 number of subjects (%)
  Total bilirubin increased (study drug-related AE): 1 (2.8) number of subjects (%)
400 mg (n = 10)
  Alkaline phosphatase increased (study drug-related AE): 0 number of subjects (%)
  Any AEs (study drug-related): 9 (25) number of subjects (%)
  Bellyache (study drug-related AE): 1 (2.8) number of subjects (%)
  Blood white cells increased (study drug-related AE): 0 number of subjects (%)
  Diarrhea (study drug-related AE): 9 (25) number of subjects (%)
  Direct bilirubin increased (study drug-related AE): 5 (13.9) number of subjects (%)
  Dizziness (study drug-related AE): 0 number of subjects (%)
  Headache (study drug-related AE): 0 number of subjects (%)
  Loss of appetite (study drug-related AE): 0 number of subjects (%)
  Nausea (study drug-related AE): 0 number of subjects (%)
  Rash (study drug-related AE): 0 number of subjects (%)
  Subcutaneous bleeding (double forearm) (study drug-related AE): 1 (2.8) number of subjects (%)
  Total bilirubin increased (study drug-related AE): 3 (8.3) number of subjects (%)
